From patent US20210220489A1, “AMYGDALAR NEURAL ENSEMBLE THAT ENCODES THE UNPL[…] PAIN” (The Board of Trustees of the Leland Stanford Junior …, priority 2020, published 2021)

System: control neuropathic mice
Assay: Pain behaviors in control neuropathic mice not expressing hM4-mCherry in the BLA
Type: in vivo
Conditions: absence of hM4 expression, CNO 10 mg/kg, morphine as positive control
From the text: To induce a chronic pain state, we used a modified version of the Spared Nerve Injury (SNI) model of neuropathic pain, as previously described (70). This model entails surgical section of two of the sciatic nerve branches (common peroneal and tibial branches) while sparing the third (sural branch). […] To perform this peripheral nerve injury procedure, anesthesia was induced and maintained throughout surgery with isoflurane (4% induction, 1.5% maintenance in oxygen). The left hind leg was shaved and wiped clean with alcohol and betadine. We made a 1-cm incision in the skin of the mid-dorsal thigh, approximately where the sciatic nerve trifurcates. The biceps femoris and semimembranosus muscles were gently separated from one another with blunt scissors, thereby creating a <1-cm opening between the muscle groups to expose the common peroneal, tibial, and sural branches of the sciatic nerve. Next, −2 mm of both the common peroneal and tibial nerves were transected and removed, without suturing and with care not to distend the sural nerve. The leg muscles are left uncultured and the skin was closed with tissue adhesive (3M Vetbond), followed by a Betadine application. During recovery from surgery, mice were placed under a heat lamp until awake and achieved normal balanced movement. Mice were then returned to their home cage and closely monitored over the following three days for well-being.
To evaluate mechanical reflexive sensitivity, we used a logarithmically increasing set of 8 von Frey filaments (Stoelting), ranging in gram force from 0.07- to 6.0-g (93). These filaments were applied perpendicular to the plantar hindpaw with sufficient force to cause a slight bending of the filament. […] Using the Up-Down statistical method, the 50% withdrawal mechanical threshold scores were calculated for each mouse and then averaged across the experimental groups. The response frequency was calculated as the number of positive responses out of 10 stimulations, delivered at 30-s intervals.
To evaluate affective-motivational responses evoked by thermal stimulation (81), we applied either a single, unilateral 50-μL drop of water (5, 30, or 55° C.) or acetone (evaporative cooling) to the left hindpaw, and the duration of attending behavior was collected for up to 60 s after the stimulation. […] The track was subdivided into 25 temperature zones (4.8-cm D per zone), and we assessed the temperature at the center of each zone by a K-probe thermocouple. […] A video camera placed above the track recorded the position of the mouse within the temperature zones, and videos were later analyzed using a video-tracking software (Etho-vision, Noldus) for duration of zone occupancy, zone visits, distance, velocity, and acceleration.

CN1CC[C@]23c4c5ccc(O)c4O[C@H]2[C@@H](O)C=C[C@H]3[C@H]1C5 [Morphine]
affective-motivational behaviors (acetone drop): reduced
reflex behaviors (von Frey filaments): reduced
